Test results: patent publication US20150342190A1, “METHODS FOR LEVERAGING HORMESIS IN PLANT BREEDING AND PLANTS WITH ENHANCED HORMESIS EFFECTS” (PIONEER HI BRED INTERNATIONAL INC, priority 2014, published 2015)
Like-named read-outs stand apart in the source and are kept apart here.

Legend:
Assay type in all cases: in vivo
[1] = tested on: soybean line 93Y92BC3 (RR + Als1 + Als2); assay: 2014 field hormesis trial (Example 4)
Method: (§1) The field trial was conducted as a 7×4 factorial experiment (7 herbicide regimes×4 genotypes) in a split block design with main blocks as herbicide treatments. The trial was conducted at 3 different environments (separate field locations) in Iowa during the summer of 2014. Herbicide control treatment #1 (no sulfonylurea) was replicated 12 times within each of the 3 environments (36 reps total). Herbicide treatments 2 through 7 (Table 7) were replicated 6 times at each of the 3 environments (18 reps total). The additional replication of control treatment #1 was done to increase precision of the treatment mean to which all other treatments (#2 through 7) would be compared.
(§2) It is important to note that both tribenuron and rimsulfuron are more toxic to wild type soybeans than other SU's that could also be tested. But treatment with these specific SU's and application rates was intended to push the limits of SU tolerance so that any response differences between lines could be exposed. The 4 genotypes (Table 6) were randomized within each of the main blocks to facilitate post-emergence application of the various herbicide treatments (Table 7). Each experimental unit was a 2-row soybean plot 15 feet long with 30 inch row spacing and a planting density of 8 seeds per foot of row. Planting was done in mid-May and harvest was done in early October at all 3 environments in 2014.
(§3) Several weeks after planting, the entire field was sprayed post-emergence at the V2 (2-leaf) stage with Roundup PowerMax® at 44 oz/acre (30 oz/acre ai glyphosate) with the addition of ammonium sulfate at a rate of 8 lb per 100 gallons as according to label. Several days later at the V3 (3-leaf) stage, herbicide treatments 2 through 7 (Table 7) were applied according to label directions including the addition of ammonium sulfate at a rate of 8 lb per 100 gallons of spray solution. Randomly embedded control plots of a given soybean genotype facilitated side-by-side visual estimates of herbicide injury. Plots were given visual injury ratings at 14 days after herbicide treatment (14 DAT). Visual injury estimates were assigned to reflect the crop response (a combination of reduced vigor and/or chlorosis) of sprayed rows in relation to the randomly embedded control plots. Injury scores were based on a 0-100% scale, with 0 indicating no crop response and 100 indicating all plants killed.
(§4) At maturity, the seed from each plot was harvested with weight and moisture recorded. Weights were then adjusted to 13% moisture content and reported in units of bushels per acre (bu/a). Yields were also converted to % of control on a “per line” and “per environment” basis. For example, the average yield of SU-treated 93Y92BC3 plots were compared to the average yield of 93Y92BC3 control plots within a given environment and then averaged across environments.

[2] = tested on: soybean line 93Y82BC3 (RR + Als1 + Als2); assay: 2014 field hormesis trial (Example 4)
Method: as §1, §2, §3, §4

[3] = tested on: soybean line 93M94 (RR + Als1)
Method: as §1, §2, §3, §4

[4] = tested on: soybean line 94Y02 (RR + Als1)
Method: as §1, §2, §3, §4

soybean lines of Table 2 = assay: Field yield trial with herbicide treatments (Example 2), all lines; details: 1/4 concentration herbicide application (Tribenuron 0.25X) at V3
Method: (§5) Table 2 describes the soy lines used and whether ALS1, ALS2, or both herbicide resistant genes were present in each.
(§6) Each of the lines in Table 2 was grown at a density of 150,000 seeds/acre (˜8 seeds per foot of row) in two 30 inch rows. Each line was divided into four groups, and each group of each line was subjected to one of the four herbicide treatments listed in Table 3.
(§7) Group 1 of each line was the control group that received no herbicide treatment. Groups 2, 3, and 4 of each line were treated with different concentrations of herbicide corresponding to approximately ¼ strength, ½ strength, and full strength (needed for weed control) respectively of the recommended concentrations of the herbicide DuPont™ Express® w/TotalSol®, which includes Tribenuron, a sulfonylurea herbicide. The herbicide treatment spray solution was prepared according to the label instructions with a non-ionic surfactant and an adjuvant (ammonium sulfate). The herbicide was applied to Groups 2, 3, and 4 during the V3 growth phase, the plants were grown to maturity, and yield measurements were made. Each genotype×herbicide treatment group was replicated six times.

[5] = tested on: soybean line BC44883300 (ALS2); assay: Field yield trial with herbicide treatments (Example 2); details: full herbicide concentration (Tribenuron 1.0X) at V3
Method: as §5, §6, §7

[6] = tested on: soybean line BC44883269 (ALS2); assay: as above; details: full herbicide concentration (Tribenuron 1.0X) at V3
Method: as §5, §6, §7

[7] = tested on: soybean line BC44883336 (ALS1 + ALS2); assay: as above; details: full herbicide concentration (Tribenuron 1.0X) at V3
Method: as §5, §6, §7

[8] = tested on: soybean line BC44883270 (ALS1 + ALS2); assay: as above; details: full herbicide concentration (Tribenuron 1.0X) at V3
Method: as §5, §6, §7

[9] = tested on: inbred lines without the glyphosate tolerance trait (PH1BVW2, PH1PMB1, and PHSZB1); assay: Glyphosate efficacy check on non-tolerant maize inbreds (Example 5); details: both glyphosate treatments (1× and 2× of the recommended dosage), spray
Method: (§8) Seeds from four glyphosate tolerant maize inbred lines (PH1BVW2, PH1PMB1, PHSZB1 and PH19081) were washed in 0.615% NaClO solution for 5 minutes and rinsed with deionized water. They were germinated for one week and then transferred into individual 10″ Deepot tubes (1 seedling/tube), either with foam plugs to suspend the plants in the tubes (Experiments 1 &2) or filled with Turface (Experiments 3 & 4). These tubes were placed into hydroponic growing tanks (100 tubes/tank) with a modified Hoagland's media. At the end of the 2nd week after planting, plants from selected tanks were sprayed with glyphosate solutions equivalent to 1× or 2× of the recommended dosage (1× dosage: 1 quart of liquid Round-Up WeatherMax® per acre, or 21.75 ul/ft2). Separately, three inbred lines without the glyphosate tolerance trait (PH1BVW2, PH1PMB1, and PHSZB1) were treated with the same dosages of glyphosate to confirm the efficacy of the herbicide. The inbred lines without the glyphosate tolerance trait were killed by both glyphosate treatments, as expected. Four weeks after germination, plants were harvested and shoot fresh weight was recorded.

[10] = tested on: glyphosate tolerant maize inbred line PH19081; assay: Glyphosate treatment of hydroponically grown maize inbreds, shoot fresh weight (Example 5); details: seedling fresh weight
Method: as §8

[11] = tested on: glyphosate tolerant maize inbred line PH1BVW2; assay: as above; details: seedling fresh weight
Method: as §8

[12] = 0.5x rate at V3, 3 environments
[13] = herbicide treatments 2 and 3 (tribenuron 0.5x and 1x), 14 DAT

CCS(=O)(=O)c1cccnc1S(=O)(=O)NC(=O)Nc1nc(OC)cc(OC)n1 [rimsulfuron]
Yield as % of control ([1]; 0.5x rate at V3): 107% | Yield effect ([1]; 0.5x rate at V3): Positive | Yield (bu/a) [1, 12]: 59.8 bu/a | Yield as % of control ([1]; 1x rate at V3): 108% | Yield effect ([1]; 1x rate at V3): Positive | Yield (bu/a) ([1]; 1x rate at V3, 3 environments): 60.5 bu/a | Yield as % of control ([1]; 2x rate at V3): 89% | Yield effect ([1]; 2x rate at V3): negative | Yield (bu/a) ([1]; 2x rate at V3, 3 environments): 49.9 bu/a | Yield as % of control ([2]; 0.5x rate at V3): 99% | Yield effect ([2]; 0.5x rate at V3): neutral | Yield (bu/a) [2, 12]: 60.1 bu/a | Yield as % of control ([2]; 1x rate at V3): 93% | Yield effect ([2]; 1x rate at V3): negative | Yield (bu/a) ([2]; 1x rate at V3, 3 environments): 56.2 bu/a | Yield as % of control ([2]; 2x rate at V3): 81% | Yield effect ([2]; 2x rate at V3): negative | Yield (bu/a) ([2]; 2x rate at V3, 3 environments): 48.7 bu/a | Yield as % of control ([3]; 0.5x rate at V3): 76% | Yield effect ([3]; 0.5x rate at V3): negative | Yield (bu/a) [3, 12]: 36.7 bu/a | Yield as % of control ([3]; 1x rate at V3): 51% | Yield effect ([3]; 1x rate at V3): negative | Yield (bu/a) ([3]; 1x rate at V3, 3 environments): 24.7 bu/a | Yield as % of control ([3]; 2x rate at V3): 41% | Yield effect ([3]; 2x rate at V3): negative | Yield (bu/a) ([3]; 2x rate at V3, 3 environments): 19.6 bu/a | Yield as % of control ([4]; 0.5x rate at V3): 54% | Yield effect ([4]; 0.5x rate at V3): negative | Yield (bu/a) [4, 12]: 31.7 bu/a | Yield as % of control ([4]; 1x rate at V3): 33% | Yield effect ([4]; 1x rate at V3): negative | Yield (bu/a) ([4]; 1x rate at V3, 3 environments): 19.5 bu/a | Yield as % of control ([4]; 2x rate at V3): 21% | Yield effect ([4]; 2x rate at V3): negative | Yield (bu/a) ([4]; 2x rate at V3, 3 environments): 12.2 bu/a

COc1nc(C)nc(N(C)C(=O)NS(=O)(=O)c2ccccc2C(=O)O)n1 [tribenuron]
Yield as % of control ([1]; 0.5x rate at V3): 106% | Yield effect ([1]; 0.5x rate at V3): Positive | Yield (bu/a) [1, 12]: 59.4 bu/a | Visual injury 14 DAT ([1]; 0.5x rate at V3, 14 DAT): 2% | Yield as % of control ([1]; 1x rate at V3): 104% | Yield effect ([1]; 1x rate at V3): Positive | Yield (bu/a) ([1]; 1x rate at V3, 3 environments): 58.0 bu/a | Visual injury 14 DAT ([1]; 1x rate at V3, 14 DAT): 5% | Yield as % of control ([1]; 2x rate at V3): 108% | Yield effect ([1]; 2x rate at V3): Positive | Yield (bu/a) ([1]; 2x rate at V3, 3 environments): 60.0 bu/a | Visual injury 14 DAT ([1]; 2x rate at V3, 14 DAT): 14% | average visual injury [1, 13]: ≤ 6% | Yield as % of control ([2]; 0.5x rate at V3): 101% | Yield effect ([2]; 0.5x rate at V3): neutral | Yield (bu/a) [2, 12]: 61.1 bu/a | Visual injury 14 DAT ([2]; 0.5x rate at V3, 14 DAT): 3% | Yield as % of control ([2]; 1x rate at V3): 101% | Yield effect ([2]; 1x rate at V3): neutral | Yield (bu/a) ([2]; 1x rate at V3, 3 environments): 61.3 bu/a | Visual injury 14 DAT ([2]; 1x rate at V3, 14 DAT): 6% | Yield as % of control ([2]; 2x rate at V3): 102% | Yield effect ([2]; 2x rate at V3): neutral | Yield (bu/a) ([2]; 2x rate at V3, 3 environments): 61.4 bu/a | Visual injury 14 DAT ([2]; 2x rate at V3, 14 DAT): 16% | average visual injury [2, 13]: ≤ 6% | Yield as % of control ([3]; 0.5x rate at V3): 98% | Yield effect ([3]; 0.5x rate at V3): neutral | Yield (bu/a) [3, 12]: 47.5 bu/a | Visual injury 14 DAT ([3]; 0.5x rate at V3, 14 DAT): 10% | Yield as % of control ([3]; 1x rate at V3): 101% | Yield effect ([3]; 1x rate at V3): neutral | Yield (bu/a) ([3]; 1x rate at V3, 3 environments): 48.9 bu/a | Visual injury 14 DAT ([3]; 1x rate at V3, 14 DAT): 18% | Yield as % of control ([3]; 2x rate at V3): 87% | Yield effect ([3]; 2x rate at V3): negative | Yield (bu/a) ([3]; 2x rate at V3, 3 environments): 41.9 bu/a | Visual injury 14 DAT ([3]; 2x rate at V3, 14 DAT): 39% | Yield as % of control ([4]; 0.5x rate at V3): 99% | Yield effect ([4]; 0.5x rate at V3): neutral | Yield (bu/a) [4, 12]: 58.8 bu/a | Visual injury 14 DAT ([4]; 0.5x rate at V3, 14 DAT): 9% | Yield as % of control ([4]; 1x rate at V3): 98% | Yield effect ([4]; 1x rate at V3): neutral | Yield (bu/a) ([4]; 1x rate at V3, 3 environments): 58.2 bu/a | Visual injury 14 DAT ([4]; 1x rate at V3, 14 DAT): 19% | Yield as % of control ([4]; 2x rate at V3): 82% | Yield effect ([4]; 2x rate at V3): negative | Yield (bu/a) ([4]; 2x rate at V3, 3 environments): 48.6 bu/a | Visual injury 14 DAT ([4]; 2x rate at V3, 14 DAT): 39% | yield relative to the control (hormesis effect) (soybean lines of Table 2): relative yield increase | yield decrease [5]: ~19% | yield decrease [6]: about 32% | yield improvement over the control [7]: ~13% | yield improvement over the control [8]: about 4.5%

O=C(O)CNCP(=O)(O)O [glyphosate]
efficacy of the herbicide on non-tolerant lines [9]: killed | hormesis effect upon application of herbicide [10]: positive hormesis effect | hormesis effect upon application of herbicide [11]: positive hormesis effect
